Several values for one entry are separate records, joined by “and”; a condition that tells them apart may be missing. Equal values may be shown once.
Tested on: 653999-131-R-J2-PDC complex spheroids, growth % test/control
Test: Anticancer human tumor 653999-131-R-J2-PDC patient-derived lung adenocarcinoma cell line growth inhibition [AhR]
Settings: for viability, T/C: stronger effect = lower value
Outline: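 Spheroids combined tumor cells with HUVEC endothelial cells and human MSCs as stroma. AhR antagonists were paired with standard or investigational drugs, each dosed in half-log steps down from near clinical Cmax, or from 10 microM where Cmax was unknown.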

[1] = curve of first compound, second compound 0.1 µM
[2] = curve of first compound, second compound 0.316 µM
[3] = curve of first compound, second compound 1 µM
[4] = curve of first compound, second compound 3.16 µM
[5] = curve of first compound, second compound 10 µM
[6] = second compound 0.1 µM, first compound 0.00316 µM
[7] = second compound 0.1 µM, first compound 0.01 µM
[8] = second compound 0.1 µM, first compound 0.0316 µM
[9] = second compound 0.1 µM, first compound 0.1 µM
[10] = second compound 0.316 µM, first compound 0.00316 µM
[11] = second compound 0.316 µM, first compound 0.01 µM
[12] = second compound 0.316 µM, first compound 0.0316 µM
[13] = second compound 0.316 µM, first compound 0.1 µM
[14] = second compound 1 µM, first compound 0.00316 µM
[15] = second compound 1 µM, first compound 0.01 µM
[16] = second compound 1 µM, first compound 0.0316 µM
[17] = second compound 1 µM, first compound 0.1 µM
[18] = second compound 3.16 µM, first compound 0.00316 µM
[19] = second compound 3.16 µM, first compound 0.01 µM
[20] = second compound 3.16 µM, first compound 0.0316 µM
[21] = second compound 3.16 µM, first compound 0.1 µM
[22] = second compound 10 µM, first compound 0.00316 µM
[23] = second compound 10 µM, first compound 0.01 µM
[24] = second compound 10 µM, first compound 0.0316 µM
[25] = second compound 10 µM, first compound 0.1 µM
[26] = second compound 0.1 µM, first compound 0.316 µM
[27] = second compound 0.1 µM, first compound 1 µM
[28] = second compound 0.316 µM, first compound 0.316 µM
[29] = second compound 0.316 µM, first compound 1 µM
[30] = second compound 1 µM, first compound 0.316 µM
[31] = second compound 1 µM, first compound 1 µM
[32] = second compound 3.16 µM, first compound 0.316 µM
[33] = second compound 3.16 µM, first compound 1 µM
[34] = second compound 10 µM, first compound 0.316 µM
[35] = second compound 10 µM, first compound 1 µM
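Also: spheroids exposed to agents for seven days.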
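For viability, T/C in this document: 100% = DMSO vehicle control viability.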

For CC[C@@]1(O)C(=O)OCc2c1cc1n(c2=O)Cc2cc3c(CN(C)C)c(O)ccc3nc2-1 + Cc1ccccc1N=Nc1ccc(NC(=O)c2ccnn2C)c(C)c1, the IC50 [1] was 77.5 nM, the IC50 [2] was 79.6 nM and the IC50 [3] was 68.2 nM. For the same compound, the IC50 [4] was 84.9 nM, the IC50 [5] was > 100 nM and the viability, T/C (second compound 0.1 µM, first compound 0.000316 µM) was 111%. The viability, T/C (second compound 0.1 µM, first compound 0.001 µM) was 104%, the viability, T/C [6] was 93.1% and the viability, T/C [7] was 87.7%. For the same compound, the viability, T/C [8] was 63.7%, the viability, T/C [9] was 45.9% and the viability, T/C (second compound 0.316 µM, first compound 0.000316 µM) was 95%. It also gave a viability, T/C (second compound 0.316 µM, first compound 0.001 µM) of 108%, a viability, T/C [10] of 120% and a viability, T/C [11] of 88.3%. It also gave a viability, T/C [12] of 63.4%, a viability, T/C [13] of 46% and a viability, T/C (second compound 1 µM, first compound 0.000316 µM) of 101%. The viability, T/C (second compound 1 µM, first compound 0.001 µM) was 122%, the viability, T/C [14] was 109% and the viability, T/C [15] was 94.5%. It also gave a viability, T/C [16] of 61.6%, a viability, T/C [17] of 44.2% and a viability, T/C (second compound 3.16 µM, first compound 0.000316 µM) of 103%. It also gave a viability, T/C (second compound 3.16 µM, first compound 0.001 µM) of 110%, a viability, T/C [18] of 109% and a viability, T/C [19] of 91.7%. It also gave a viability, T/C [20] of 59%, a viability, T/C [21] of 48.2% and a viability, T/C (second compound 10 µM, first compound 0.000316 µM) of 117%. The viability, T/C (second compound 10 µM, first compound 0.001 µM) was 106%, the viability, T/C [22] was 101% and the viability, T/C [23] was 82.3%. For the same compound, the viability, T/C [24] was 65.8% and the viability, T/C [25] was 57.8%.

With Nc1ncn(C2CC(O)C(CO)O2)c(=O)n1 (configuration not stated) + Cc1cncc(-c2nc(NCCc3c[nH]c4ccccc34)c3ncn(C(C)C)c3n2)c1 the IC50 [1] was > 1000 nM, the IC50 [2] was > 1000 nM and the IC50 [3] was > 1000 nM. The IC50 [4] was > 1000 nM, the IC50 [5] was 210 nM and the viability, T/C [6] was 96.2%. It also gave a viability, T/C [7] of 86.1%, a viability, T/C [8] of 92.3% and a viability, T/C [9] of 86.5%. The viability, T/C [26] was 88.2%, the viability, T/C [27] was 77.5% and the viability, T/C [10] was 91.2%. For the same compound, the viability, T/C [11] was 94%, the viability, T/C [12] was 90.8% and the viability, T/C [13] was 85.1%. The viability, T/C [28] was 87.7%, the viability, T/C [29] was 83.6% and the viability, T/C [14] was 106%. The viability, T/C [15] was 108%, the viability, T/C [16] was 99.2% and the viability, T/C [17] was 99.2%. It also gave a viability, T/C [30] of 94.1%, a viability, T/C [31] of 82% and a viability, T/C [18] of 98.7%. For the same compound, the viability, T/C [19] was 95.2%, the viability, T/C [20] was 106% and the viability, T/C [21] was 98.3%. It also gave a viability, T/C [32] of 96.9%, a viability, T/C [33] of 90.2% and a viability, T/C [22] of 54.6%. For the same compound, the viability, T/C [23] was 52.4%, the viability, T/C [24] was 54% and the viability, T/C [25] was 51.9%. It also gave a viability, T/C [34] of 49.2% and a viability, T/C [35] of 47.2%.

For COc1cccc2c1C(=O)c1c(O)c3c(c(O)c1C2=O)CC(O)(C(=O)CO)CC3OC1CC(N)C(O)C(C)O1 (configuration not stated), the viability, T/C (compound 0.0316 µM) was 62.4% and 56% and 66.2%, the viability, T/C (compound 0.1 µM) was 40.9% and 45.6% and 56.4% and the viability, T/C (compound 0.316 µM) was 28.3% and 26.5% and 28.1%. For the same compound, the viability, T/C (compound 1 µM) was 7.89% and 10.5% and 10.6%, the viability, T/C (compound 3.16 µM) was 3.94% and 7.29% and 3.85% and the viability, T/C (compound 10 µM) was 10.6% and 20.5% and 19.3%. The IC50 (curve of compound) was 66.2 nM and 65.3 nM and 132 nM.

Compound COc1cc(C2c3cc4c(cc3C(OC3OC5COC(C)OC5C(O)C3O)C3COC(=O)C23)OCO4)cc(OC)c1O (configuration not stated) + Cc1ccccc1N=Nc1ccc(NC(=O)c2ccnn2C)c(C)c1 has an IC50 [1] of 846 nM, an IC50 [2] of 568 nM and an IC50 [3] of 513 nM. It also gave an IC50 [4] of 965 nM, an IC50 [5] of 962 nM and a viability, T/C [8] of 86%. For the same compound, the viability, T/C [9] was 76%, the viability, T/C [26] was 58.6% and the viability, T/C [27] was 48.8%. The viability, T/C (second compound 0.1 µM, first compound 3.16 µM) was 38.1%, the viability, T/C (second compound 0.1 µM, first compound 10 µM) was 28.3% and the viability, T/C [12] was 86.2%. For the same compound, the viability, T/C [13] was 68.6%, the viability, T/C [28] was 54% and the viability, T/C [29] was 47.3%. The viability, T/C (second compound 0.316 µM, first compound 3.16 µM) was 34%, the viability, T/C (second compound 0.316 µM, first compound 10 µM) was 29.1% and the viability, T/C [16] was 90.2%. It also gave a viability, T/C [17] of 72.6%, a viability, T/C [30] of 53.7% and a viability, T/C [31] of 42.8%. For the same compound, the viability, T/C (second compound 1 µM, first compound 3.16 µM) was 37.7%, the viability, T/C (second compound 1 µM, first compound 10 µM) was 30.2% and the viability, T/C [20] was 80%. It also gave a viability, T/C [21] of 77.4%, a viability, T/C [32] of 62% and a viability, T/C [33] of 46.1%. The viability, T/C (second compound 3.16 µM, first compound 3.16 µM) was 42.5%, the viability, T/C (second compound 3.16 µM, first compound 10 µM) was 27.7% and the viability, T/C [24] was 72.6%. For the same compound, the viability, T/C [25] was 68.7%, the viability, T/C [34] was 58% and the viability, T/C [35] was 49%. It also gave a viability, T/C (second compound 10 µM, first compound 3.16 µM) of 41.4% and a viability, T/C (second compound 10 µM, first compound 10 µM) of 31.8%.
